“Also recorded” adds a separate entry of the source. Bridges are numbered along the chain shown (N, C = ends). Where no end group is shown, it is not given here. FAM = 5(6)-carboxyfluorescein; Ahx = NCCCCCC(=O)O
Experiments:
[1] = target: T1, b1b2 domain of NRP-1 (Homo sapiens, UniProt O14786); experiment: Fluorescence polarization displacement of FAM-RPARPAR from NRP-1; format: binding; details: for effect on RPARPAR peptide binding to NRP-1: specificity assay, up to 100 μM
T1 sequence (O14786 273-586 limits assumed): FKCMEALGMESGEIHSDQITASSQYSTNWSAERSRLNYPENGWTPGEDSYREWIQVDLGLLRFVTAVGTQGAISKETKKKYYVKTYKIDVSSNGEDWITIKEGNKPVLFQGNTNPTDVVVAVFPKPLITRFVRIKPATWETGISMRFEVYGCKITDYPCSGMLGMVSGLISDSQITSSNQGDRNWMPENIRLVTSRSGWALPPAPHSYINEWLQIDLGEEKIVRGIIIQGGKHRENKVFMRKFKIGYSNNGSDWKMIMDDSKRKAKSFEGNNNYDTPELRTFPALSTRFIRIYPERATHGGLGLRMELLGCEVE
Method: Results of the high-throughput screen were confirmed in dose response tests. 8.25 μM to 100 μM dilutions of the compounds that displaced FAM-peptide from p32 were used in competition with FAM-peptide as described in previous section. Specificity of the hit compounds was verified by examining their binding to a different protein, b1b2 domain of NRP-1 (Vander Kooi et al., Proc. Natl. Acad. Sci. U.S.A., 10.1073/pnas.0700043104). Experimental method for NRP-1 b1b2 was developed and validated similarly to p32, using FAM-RPARPAR peptide as a known peptide ligand for NRP-1. The displacement of FAM-RPARPAR from NRP-1 protein by the hit compounds was studied in 384-well format, as described above.

[2] = target: T2, p32 protein (Homo sapiens, UniProt Q07021); experiment: NMR 1D 1H-aliph spectra of p32 with compounds; format: binding; details: 5 μM p32; compounds 100 and 500 μM; TT1 70 μM
T2 construct: 6xHis; host or cells: Rosetta-gami-2 cells (Novagen); an E. coli strain by own knowledge
T2 sequence (Q07021 74-282): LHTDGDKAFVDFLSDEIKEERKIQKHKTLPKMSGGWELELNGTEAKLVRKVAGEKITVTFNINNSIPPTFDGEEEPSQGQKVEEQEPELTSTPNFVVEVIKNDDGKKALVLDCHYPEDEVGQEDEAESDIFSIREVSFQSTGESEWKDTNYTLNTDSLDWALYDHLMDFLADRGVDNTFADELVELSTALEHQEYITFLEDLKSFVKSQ
Method: FIGS. 3A and 3B are graphs showing NMR based evaluation of binding of compounds 4014008 and 7933989 to P32 protein. The ID ^1H-aliph spectra of 5 μM P32 in the absence (bottom) and presence of compounds #4014008 (A) and #7933989 (B) at 100 μM (second from bottom) and 500 μM (second from top) were collected. As a control, the spectrum of p32 in the presence of the known peptide binder, TT1 at 70 μM, was also collected (top).
All the NMR experiments were carried out on a Bruker Avance 700 spectrometer equipped with a TCI cryoprobe at T=293 K. For structure determinations, the peptide concentration was 100 μM in the NMR buffer in presence of 150 μM of ZnCl2. One-dimensional (1D) 1H spectra were acquired with a spectral width of 8417.51 Hz, relaxation delay 1.0 s, 8 k data points for acquisition and 16 k for transformation.

[3] = target: T2, p32 protein; experiment: Fluorescence polarization assay: displacement of FAM-TT1 from p32 (HTS, dose response, unlabeled peptide competition); format: binding; details: for inhibition at 25 µM: high-throughput screen hits, inhibition of TT1-p32 interaction, library compounds 25 μM (Table 1), b410 says 100 μM; for inhibition at 100 µM: highest concentration used, read-out: inhibition of FAM-TT1 binding to p32 in FP assay; for dose-dependent inhibition of FAM-TT1 binding to p32: 8.25 μM to 100 μM
Method: Fluorescence polarization (FP)-based assay was used for solution-based screening of compound libraries for p32 binding compounds. […] In FP assay, peptide conjugated with a fluorescent label (fluorescein-AM, FAM) is excited with polarized light. […] 6×-His-Tagged p^32 was expressed in Rosetta-gami-2 cells (Novagen). The protein was purified by IMAC using HIS-select resin (Sigma) with an imidizole gradient from 20-300 mM and eluted fractions were analyzed on analytical SDS-PAGE. […] Fluorescence polarization is given as milli-polarization (mP) value, which is obtained from equation (1):
mP=1000*(S−P)/(S+P), (Eq. 1)
(§1) The assay was initially set up in 20 μl well volume in 384 well plate (Corning Life Sciences), and measurements were carried out using PheraStar FS plate reader (BMG LABTECH, Ortenberg, Germany) in quadruplicate. Peptide and protein stock solutions were diluted to desired concentration with assay buffer (50 mM BIS-TRIS pH 7.4, 0.05% Tween20, 1 mM DTT). FAM-labeled peptides were protected from light during the experiment to avoid photobleaching. Optimal concentration of fluorescein (FAM) labeled-peptides for the assay was determined by measuring the limit of detection (LOD), signal-to-background ratio (S/B), and stability of mP value over series of peptide concentrations. In the binding assay, the concentration of FAM-peptide was kept constant, and the FP was measured over the range of target protein concentrations. The peptide dissociation constant (KD) was obtained by fitting the binding curve into Michaelis-Menten kinetics in GraphPad Prism-software (GraphPad Software, Inc., CA, USA).
FAM-TT-1 and p32 solutions are prepared just before experiment, and stored on ice during the screen; the peptide is shielded from light. • 1. […] Dispense 1.5 μL of assay buffer (50 mM BIS-TRIS pH 7.4, 0.05% Tween 20, 1 mM DTT) into columns 1-4 • 3. […] Dispense 37.5 nL of compounds (2 mM) into columns 5-44 • 5. Spin plate • 6. Incubate 20 min • 7. Dispense 1.5 μL FAM-TT-1 peptide (20 nM) into all columns • 8. Shake plate and spin plate • 9. Incubate 25 min • 10. Read plate on PheraStar FS
Chemical library of ˜50,000 compounds from ChemBridge (San Diego, Calif.) was screened in High-Throughput Screening Facility at Conrad Prebys Center for Chemical Genomics (Sanford-Burnham Medical Research Institute, La Jolla, Calif.). […] Peptide and protein were diluted immediately prior to screening, kept on ice during screening, and FAM-peptide was protected from light throughout the experiment. […]

[4] = target: T2, p32 protein; experiment: TT1 phage binding inhibition assay (ELISA-type); details: 100 μM compound
Method: The binding of individual phage to p32 was verified using ELISA-type of phage binding assay. 96-well plates (Corning Life Sciences, Tewksbury, Mass., USA) were coated with 100 μL of 5 μg/mL p32 in PBS at 4° C. overnight, washed 3 times with 200 μL of PBST (PBS+0.05% Tween-20), blocked with 200 μL of 0.5% bovine serum albumin (BSA) in PBST for 1 h at 37° C., and washed 3 times with PBST. Phages (1.11*10^8 pfu in 100 μL PBST) were added to p32-coated/BSA-blocked wells, the plate was incubated at 4° C. overnight, and washed 3 times with PBST. Subsequently, the plates were incubated with 100 μL in-house prepared polyclonal rabbit anti-T7 antibody diluted 1:1000 in PBST for 1 h at 4° C., and washed 3 times with washing buffer. Horseradish peroxidase (HRP)-labeled anti-rabbit IgG (Sigma-Aldrich) was diluted 1:1000 in PBS, and 100 μL was added to the wells, followed by 1 h incubation at 4° C. and washing 3 times. Next, 100 μL of OPD silver and gold substrate (Sigma-Aldrich) was added to the wells and incubated at room temperature until visible color was observed (<30 min). The reaction was stopped by adding 50 μL of 1M H2SO4, and the plate was read at 492 nm (Varioskan Flash, Thermo Scientific, Waltham, Mass., USA).
The ability to inhibit TT1-phage binding to p32 protein was used as a secondary assay to verify the hit compounds. The competition assay was based on the phage binding assay described above with minor modifications. ELISA plates were coated with 2.5 μg/mL p32, incubated with phages (1.11*10^8 pfu in 100 μL PBST) and 100 μM hit compounds at 4° C. overnight, and followed by antibody incubation and chromogenic reaction. Negative controls included DMSO at concentration it was used to dissolve the hit compounds.

[5] = test system: atherosclerotic plaques; experiment: Plaque homing of FAM-labeled peptides in ApoE null mice on high-fat diet; details: 100 μg FAM-labeled peptide IV, one hour
Text: One hour later, the mice can be perfused through the heart under anesthesia, and tissues were collected. Accumulation of FAM-labeled peptides can be visualized with UV excitation. Atherosclerotic aortas can be sectioned at the aortic root level, and examined by confocal microscopy. […] CD31 staining can be used to visualize the endothelium over the plaque.
One hour later, the mice were perfused through the heart under anesthesia, and tissues were collected. Accumulation of FAM-labeled peptides was visualized with UV excitation. Atherosclerotic aortas were sectioned at the aortic root level, and examined by confocal microscopy. […] CD31 staining was used to visualize the endothelium over the plaque.

[6] = target: T3, b1b2 domain of neuropilin-1 (NRP-1) (Homo sapiens, UniProt O14786); experiment: Fluorescence polarization binding of FAM-peptide to NRP-1
T3 sequence (O14786 273-586 limits assumed): T1 sequence (O14786 273-586 limits assumed)
Method: FIG. 8 is a graph showing specificity of TT1 binding. Specificity of TT1 was further evaluated by measuring the binding of FAM-TT1 to recombinant non-target protein, b1b2 domain of neuropilin-1 (NRP-1). The binding was studied by fluorescence polarization. […] Each data point presents average±S.D., n=4-6.
as §1, with “USA). […]” for “USA).”

[7] = in vivo
Text: Toxicity of peptide, compounds, and compositions can be assessed for toxicity. Useful factors for assessing toxicity include body weight, serum cholesterol and triglyceride, and weight of liver and spleen. Liver and kidney functions can be monitored by blood tests.

**Q.** What does the source list for `CC1(C)CN=C(NCCNC2=NCC(C)(C)S2)S1` [Compound 7933989]?
**A.** effect on RPARPAR peptide binding to NRP-1 [1]: no effect; perturbations in 1D 1H-aliphatic spectra of p32 [2]: caused similar perturbations; also recorded: shift in the peak at around −0.3 ppm; inhibition at 25 µM [3]: 40.5%; inhibition at 100 µM [3]: 80%; inhibition at 100 µM [4]: 75%

**Q.** With “FAM-LyP-1: FAM-labeled LyP-1 peptide (CGNKRTRGC; disulfide 1-9 (inferred); not fully specified (N-terminus))” as the compound, how does the “homing to atherosclerotic plaques” value [5] read?
**A.** signal was seen inside plaques

**Q.** Which “FP level in the presence of compound” value ([1]; highest concentration) does the source give for `Cc1c(O)ccc2c(C(F)(F)F)cc(=O)oc12` [Compound 6367577, 7-hydroxy-8-methyl-4-(trifluoromethyl)-2H-chromen-2-one] here?
**A.** negative value

**Q.** What about the “dose-dependent inhibition of FAM-TT1 binding to p32” value [3] of the same compound?
**A.** less effective than the other active compounds

**Q.** And the inhibition at 25 µM [3]?
**A.** 39.5%

**Q.** Which results are given for `Cc1ccc(-c2cnc(N)c(N3CCC(O)C3)n2)c(-n2cccn2)c1` (stereo not drawn) [Compound 88361068, 1-{3-amino-6-[4-methyl-2-(1H-pyrazol-1-yl)phenyl]pryazin-2-yl}pyrrolidin-3-]?
**A.** effect on RPARPAR peptide binding to NRP-1 [1]: no effect; inhibition at 25 µM [3]: 30.8%; inhibition at 100 µM [3]: 65 to 75%; inhibition at 100 µM [4]: 20%

**Q.** With `Cc1nc2nc3c(cn2n1)C(=O)CC(c1cccs1)C3` (stereo not drawn) [Compound 9132086, 2-methyl-6-(2-thienyl)-6,7-dihydro[1,2,4]triazolo [5,1-b]quinazolin-8(5H)-one] as the compound, how does the “effect on RPARPAR peptide binding to NRP-1” value [1] read?
**A.** no effect

**Q.** And the inhibition at 25 µM [3]?
**A.** 20.7%

**Q.** What about the inhibition at 100 µM [3] of the same compound?
**A.** 65 to 75%

**Q.** What about the inhibition at 100 µM [4] of the same compound?
**A.** 20%

**Q.** What does the source list for `CN1CCc2onc(-c3ccc(F)c(F)c3)c2C1` [Compound 91984046]?
**A.** inhibition at 25 µM [3]: 22.5%; inhibition at 100 µM [3]: 65 to 75%; inhibition at 100 µM [4]: 20%

**Q.** For RPARPAR [reference compound], which “binding to b1b2 domain of NRP-1” value [6] is on record?
**A.** showed strong affinity

**Q.** What about the “inhibition (dislocation) of FAM-TT1 binding to p32 by unlabeled peptide” value ([3]; unlabeled peptides titrated up to 100 μM) of the same compound?
**A.** not and did not dislocate FAM-TT1

**Q.** Which results are given for “FAM-TT1: FAM-labeled TT1 peptide, 5(6)-carboxyfluorescein with 6-aminohexanoic acid spacer ({FAM-Ahx}-CKRGARSTC; disulfide 1-9 (inferred))”?
**A.** homing to atherosclerotic plaques [5]: signal was seen inside plaques; binding to b1b2 domain of NRP-1 [6]: did not show binding

**Q.** For `C[C@@H](O)[C@@H]1NC(=O)[C@H](CCCNC(=N)N)NC(=O)[C@H](CCCCN)NC(=O)[C@H](CC(N)=O)NC(=O)CNC(=O)[C@@H](N)CSSC[C@@H](C(=O)O)NC(=O)CNC(=O)[C@H](CCCNC(=N)N)NC1=O` [LyP-1, CGNKRTRGC], which “toxicity (body weight, serum cholesterol and triglyceride, weight of liver and spleen, liver and kidney functions)” value [7] is on record?
**A.** no differences between LyP-1 and control groups

**Q.** Which results are given for `Nc1nccc(N2CCC(C3CCN(Cc4cccnc4)CC3)C2)n1` (stereo not drawn) [Compound 54778828, 4-{3-[1-(3-pyridinylmethyl)-4-piperidinyl]-1-pyrrolidinyl}-2-pyrimidinami]?
**A.** dose-dependent inhibition of FAM-TT1 binding to p32 [3]: only marginally active; inhibition at 25 µM [3]: 29.4%
